Laboratory results reported in patent publication US8519128B2, “Pyripyropene derivatives having an ACAT2-inhibiting activity” (The Kitasato Institute, priority 2007, dated 2013).
pIC50: −log10 of the molar value. Where two headings read alike, the source gives them in different places.

Molecular target: T1, ACAT 2 (Mus musculus, UniProt O88908)
T1 construct: The source of ACAT 2 enzyme used was a membrane fraction derived from mouse liver microsome; from tissue; host or cells: mouse liver (microsome fraction)
T1 sequence (O88908 1-525): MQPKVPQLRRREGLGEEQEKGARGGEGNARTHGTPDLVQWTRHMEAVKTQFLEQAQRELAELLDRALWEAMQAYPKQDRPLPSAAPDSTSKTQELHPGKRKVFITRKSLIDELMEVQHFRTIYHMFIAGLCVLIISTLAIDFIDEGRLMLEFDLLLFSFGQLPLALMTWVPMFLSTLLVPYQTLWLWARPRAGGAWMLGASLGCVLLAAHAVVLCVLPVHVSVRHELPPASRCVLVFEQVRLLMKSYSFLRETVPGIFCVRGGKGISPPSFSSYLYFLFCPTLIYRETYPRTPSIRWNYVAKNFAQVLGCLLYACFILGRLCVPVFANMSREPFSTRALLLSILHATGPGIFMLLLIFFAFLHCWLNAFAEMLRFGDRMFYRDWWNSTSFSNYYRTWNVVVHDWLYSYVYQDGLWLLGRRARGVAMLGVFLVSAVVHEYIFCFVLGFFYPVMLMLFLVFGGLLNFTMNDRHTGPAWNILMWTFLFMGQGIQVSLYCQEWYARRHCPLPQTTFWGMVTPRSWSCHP
Assay: ACAT-inhibiting activity, mouse liver microsome membrane fraction, [14C]oleoyl-CoA
Assay type: biochemical
Conditions: for Specific activity: (inhibitory activity of test compound)/(inhibitory activity of pyripyropene A): relative to pyripyropene A
Protocol: The source of ACAT 2 enzyme used was a membrane fraction derived from mouse liver microsome. Mouse liver was homogenized in buffer solution A (50 mM Tris-HCl (pH 7.8), 1 mM ethylenediamine tetraacetate, and 1 mM phenylmethanesulfonyl fluoride) using a homogenizer of the Potter type (Tokyo-RIKO). The homogenate was centrifuged at 12000×g, and the supernatant was ultracentrifuged at 100000×g. The sediment was taken as a microsome fraction, and this fraction was adjusted to have a protein concentration of 5 mg/ml using buffer solution A.
The chloroform layer was evaporated to dryness and was used to spot a thin layer chromatography plate (silica gel plate, Merck, 0.5 mm thickness). Elution for separation was carried out using a solvent of hexane/diethyl ether/acetic acid (70:30:1, v/v).

[1] = mouse liver microsome, 5 minutes at 37° C.

Row | SMILES | pIC50 [1] | Specific activity: (inhibitory activity of test compound)/(inhibitory activity of pyripyropene A) | pIC50
1 | CC12COC(c3ccccc3)O[C@H]1CC[C@@]1(C)C2C[C@H](OC(=O)c2cccc(F)c2)[C@@]2(C)Oc3cc(-c4cccnc4)oc(=O)c3[C@H](O)C12 (stereo partly shown) [PRD 047, 1,11-O-benzylidene-7-O-m-fluorobenzoyl-1,7,11-trideacetylpyripyropene A] | 7.00 to 8.00 | +++ (50 > specific activity > 10) | –
2 | CC12COC(c3ccccc3)O[C@H]1CC[C@@]1(C)C2C[C@H](OC(=O)c2ccc(F)cc2)[C@@]2(C)Oc3cc(-c4cccnc4)oc(=O)c3[C@H](O)C12 (stereo partly shown) [PRD 048, 1,11-O-benzylidene-7-O-p-fluorobenzoyl-1,7,11-trideacetylpyripyropene A] | 7.00 to 8.00 | ++ (10 > specific activity > 5) | –
3 | CC12COC(c3ccccc3)O[C@H]1CC[C@@]1(C)C2C[C@H](OC(=O)c2ccccc2Cl)[C@@]2(C)Oc3cc(-c4cccnc4)oc(=O)c3[C@H](O)C12 (stereo partly shown) [PRD 049, 1,11-O-benzylidene-7-O-o-chlorobenzoyl-1,7,11-trideacetylpyripyropene A] | 7.00 to 8.00 | +++ (50 > specific activity > 10) | –
4 | CC12COC(c3ccccc3)O[C@H]1CC[C@@]1(C)C2C[C@H](OC(=O)c2cccc(Cl)c2)[C@@]2(C)Oc3cc(-c4cccnc4)oc(=O)c3[C@H](O)C12 (stereo partly shown) [PRD 050, 1,11-O-benzylidene-7-O-m-chlorobenzoyl-1,7,11-trideacetylpyripyropene A] | 7.00 to 8.00 | +++ (50 > specific activity > 10) | –
5 | CC12COC(c3ccccc3)O[C@H]1CC[C@@]1(C)C2C[C@H](OC(=O)c2ccc(Cl)cc2)[C@@]2(C)Oc3cc(-c4cccnc4)oc(=O)c3[C@H](O)C12 (stereo partly shown) [PRD 051, 1,11-O-benzylidene-7-O-p-chlorobenzoyl-1,7,11-trideacetylpyripyropene A] | 7.00 to 8.00 | ++ (10 > specific activity > 5) | –
6 | CC12CO[Si](C(C)(C)C)(C(C)(C)C)O[C@H]1CC[C@@]1(C)C2C[C@H](OC(=O)c2ccc(C#N)cc2)[C@@]2(C)Oc3cc(-c4cccnc4)oc(=O)c3[C@H](OC(=O)c3ccc(C#N)cc3)C12 (stereo partly shown) [PRD 060, 7,13-di-(O-p-cyanobenzoyl)-1,11-O-(di-tert-butylsilylene)-1,7,11-trideacetylpyripyropene A] | 6.00 to 7.00 | + (5 > specific activity > 1) | –
7 | CC(=O)OCC1(C)C2C=C[C@@]3(C)Oc4cc(-c5cccnc5)oc(=O)c4[C@H](O)C3[C@@]2(C)CC[C@@H]1OC(C)=O (stereo partly shown) [PRD 061, 7,8-olefinpyripyropene A] | – | + (5 > specific activity > 1) | 6.00 to 7.00
8 | CC(=O)OCC1(C)C2C[C@@H](Cl)[C@@]3(C)Oc4cc(-c5cccnc5)oc(=O)c4[C@H](O)C3[C@@]2(C)CC[C@@H]1OC(C)=O (stereo partly drawn) [PRD 065, 7-(R)-chloro-7-(S)-deacetylpyripyropene A] | – | + (5 > specific activity > 1) | 6.00 to 7.00
9 | CC(=O)OCC1(C)C2C[C@H](OC(=O)C3CCCC3)[C@@]3(C)Oc4cc(-c5cccnc5)oc(=O)c4[C@H](O)C3[C@@]2(C)CC[C@@H]1OC(C)=O (stereo partly shown) [PRD 075, 7-O-cyclopentanecarboxyl-7-deacetylpyripyropene A] | – | ++ (10 > specific activity > 5) | 7.00 to 8.00

Now from value to molecule, other results behind:

Row | pIC50 [1] | Specific activity: (inhibitory activity of test compound)/(inhibitory activity of pyripyropene A) | SMILES | pIC50
10 | 7.00 to 8.00 | ++ (10 > specific activity > 5) | CC12COC(c3ccccc3)O[C@H]1CC[C@@]1(C)C2C[C@H](OC(=O)c2cccc(Br)c2)[C@@]2(C)Oc3cc(-c4cccnc4)oc(=O)c3[C@H](O)C12 (stereo partly shown) [PRD 052, 1,11-O-benzylidene-7-O-m-bromobenzoyl-1,7,11-trideacetylpyripyropene A] | –
11 | 7.00 to 8.00 | + (5 > specific activity > 1) | CC12COC(c3ccccc3)O[C@H]1CC[C@@]1(C)C2C[C@H](OC(=O)c2ccc(Br)cc2)[C@@]2(C)Oc3cc(-c4cccnc4)oc(=O)c3[C@H](O)C12 (stereo partly shown) [PRD 053, 1,11-O-benzylidene-7-O-p-bromobenzoyl-1,7,11-trideacetylpyripyropene A] | –
12 | 7.00 to 8.00 | + (5 > specific activity > 1) | CC12COC(c3ccccc3)O[C@H]1CC[C@@]1(C)C2C[C@H](OC(=O)c2ccc(C=O)cc2)[C@@]2(C)Oc3cc(-c4cccnc4)oc(=O)c3[C@H](O)C12 (stereo partly shown) [PRD 054, 1,11-O-benzylidene-7-O-p-formylbenzoyl-1,7,11-trideacetylpyripyropene A] | –
13 | 7.00 to 8.00 | +++ (50 > specific activity > 10) | COCCOCO[C@H]1CC2C(C)(COC(C)=O)[C@@H](OC(C)=O)CC[C@]2(C)C2[C@@H](O)c3c(cc(-c4cccnc4)oc3=O)O[C@@]21C (stereo partly shown) [PRD 055, 7-deacetyl-7-O-methoxyethoxymethylpyripyropene A] | –
14 | 7.00 to 8.00 | + (5 > specific activity > 1) | CC(=O)OCC1(C)C2C[C@H](OC(=O)Oc3ccccc3)[C@@]3(C)Oc4cc(-c5cccnc5)oc(=O)c4[C@H](O)C3[C@@]2(C)CC[C@@H]1OC(C)=O (stereo partly shown) [PRD 057, 7-deacetyl-7-O-phenoxycarbonylpyripyropene A] | –
15 | 7.00 to 8.00 | +++ (50 > specific activity > 10) | CC(=O)OCC1(C)C2C[C@H](OC(=O)Oc3ccc(Cl)cc3)[C@@]3(C)Oc4cc(-c5cccnc5)oc(=O)c4[C@H](O)C3[C@@]2(C)CC[C@@H]1OC(C)=O (stereo partly shown) [PRD 058, 7-O-p-chlorophenoxycarbonyl-7-deacetylpyripyropene A] | –
16 | 6.00 to 7.00 | + (5 > specific activity > 1) | CC12CO[Si](C(C)(C)C)(C(C)(C)C)O[C@H]1CC[C@@]1(C)C2C[C@H](OC(=O)c2ccc(C#N)cc2)[C@@]2(C)Oc3cc(-c4cccnc4)oc(=O)c3[C@H](O)C12 (stereo partly shown) [PRD 059, 7-O-p-cyanobenzoyl-1,11-O-(di-tert-butylsilylene)-1,7,11-trideacetylpyripyropene A] | –
17 | 6.00 to 7.00 | + (5 > specific activity > 1) | CC(=O)OCC1(C)C2C[C@@H](N=[N+]=[N-])[C@@]3(C)Oc4cc(-c5cccnc5)oc(=O)c4[C@H](O)C3[C@@]2(C)CC[C@@H]1OC(C)=O (stereo partly drawn) [PRD 062, 7-(R)-azide-7-(S)-deacetylpyripyropene A] | –
18 | 6.00 to 7.00 | + (5 > specific activity > 1) | CC(=O)OCC1(C)C2C[C@@H](I)[C@@]3(C)Oc4cc(-c5cccnc5)oc(=O)c4[C@H](O)C3[C@@]2(C)CC[C@@H]1OC(C)=O (stereo partly drawn) [PRD 064, 7-(R)-iodo-7-(S)-deacetylpyripyropene A] | –
19 | 6.00 to 7.00 | + (5 > specific activity > 1) | COc1ccc(-n2nnnc2S[C@@H]2CC3C(C)(COC(C)=O)[C@@H](OC(C)=O)CC[C@]3(C)C3[C@@H](O)c4c(cc(-c5cccnc5)oc4=O)O[C@@]32C)cc1 (stereo partly drawn) [PRD 066, 7-(R)-{sulfinyl-5-(p-methoxyphenyl)tetrazol-1-yl}-7-(S)-deacetylpyripyropene A] | –
20 | 7.00 to 8.00 | +++ (50 > specific activity > 10) | COc1ccc(CCC(=O)O[C@H]2CC3C(C)(COC(C)=O)[C@@H](OC(C)=O)CC[C@]3(C)C3[C@@H](O)c4c(cc(-c5cccnc5)oc4=O)O[C@@]32C)cc1 (stereo partly shown) [PRD 084, 7-O-3-(4-methoxyphenyl)propionyl-7-deacetylpyripyropene A] | –
21 | 7.00 to 8.00 | + (5 > specific activity > 1) | CC(=O)OCC1(C)C2C[C@H](OC(=O)C3CCC(C)CC3)[C@@]3(C)Oc4cc(-c5cccnc5)oc(=O)c4[C@H](O)C3[C@@]2(C)CC[C@@H]1OC(C)=O (stereo partly drawn) [PRD 085, 7-O-4-trans-methylcyclohexanecarboxyl-7-deacetylpyripyropene A] | –
22 | 6.00 to 7.00 | + (5 > specific activity > 1) | COc1ccc(CC(=O)O[C@H]2CC3C(C)(COC(C)=O)[C@@H](OC(C)=O)CC[C@]3(C)C3[C@@H](O)c4c(cc(-c5cccnc5)oc4=O)O[C@@]32C)cc1 (stereo partly shown) [PRD 087, 7-O-4-methoxyphenylacetyl-7-deacetylpyripyropene A] | –
23 | 6.00 to 7.00 | + (5 > specific activity > 1) | CC(=O)OCC1(C)C2C[C@H](OC(=O)Cn3cc(C)c(=O)[nH]c3=O)[C@@]3(C)Oc4cc(-c5cccnc5)oc(=O)c4[C@H](O)C3[C@@]2(C)CC[C@@H]1OC(C)=O (stereo partly shown) [PRD 090, 7-O-1-thymineacetyl-7-deacetylpyripyropene A] | –
